The results in this text go back to patent publication US20240279215A1 (Cytokinetics, Incorporated, priority 2022, published 2024).

SMILES strings stand for the structures.

human NAMPT, sequence (P43490 whole entry): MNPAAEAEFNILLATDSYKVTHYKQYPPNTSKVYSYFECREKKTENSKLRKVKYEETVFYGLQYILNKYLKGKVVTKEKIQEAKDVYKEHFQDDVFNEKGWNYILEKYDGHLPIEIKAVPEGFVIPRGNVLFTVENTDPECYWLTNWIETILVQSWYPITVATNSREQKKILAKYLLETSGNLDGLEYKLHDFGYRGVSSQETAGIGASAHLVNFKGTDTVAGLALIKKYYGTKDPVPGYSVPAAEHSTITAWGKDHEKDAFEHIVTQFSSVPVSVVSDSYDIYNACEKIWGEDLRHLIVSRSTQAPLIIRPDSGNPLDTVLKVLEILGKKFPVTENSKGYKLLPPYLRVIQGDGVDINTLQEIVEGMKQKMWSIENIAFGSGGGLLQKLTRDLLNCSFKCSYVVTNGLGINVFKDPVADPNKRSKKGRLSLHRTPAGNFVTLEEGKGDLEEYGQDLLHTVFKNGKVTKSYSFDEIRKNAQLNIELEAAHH

The assay deals with human NAMPT (Homo sapiens (Human), UniProt P43490). Nature of the assay: NMN fluorescence biochemical assay (human recombinant NAMPT enzyme assay). The gist of the method:
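NMN formed was detected by fluorescence (Ex/Em 355/460 nm) after acetophenone, KOH and formic acid derivatization. The cell-free reaction ran 60 min at ambient temperature with 6 nM human NAMPT, 150 μM nicotinamide, 20 μM PRPP, 2.5 mM ATP, pH 7.2 HEPES, and compound dose responses.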
`CN(C)S(=O)(=O)N1CCC[C@H](c2ccc(NC(=O)OCc3cnco3)cc2)C1` [Compound 366, oxazol-5-ylmethyl (R)-(4-(1-(N,N-dimethylsulfamoyl)piperidin-3-yl)phenyl)carbamate]: the “AC1.4 Human” value was 0.15 µM and the EC50 turned out to be 10.2 µM.
Turning to `CCC(=O)N1CCC2(CC(Cc3ccc(NC(=O)OCc4cnco4)cc3F)C2)C1` (centres unmarked) [Compound 367, oxazol-5-ylmethyl (3-fluoro-4-((6-propionyl-6-azaspiro[3.4]octan-2-yl)methyl)phenyl)carbamate], the “AC1.4 Human” value is 0.07 µM and the EC50 is 4.77 µM.
The matching figures for `CC(C)C(=O)N1CCC2(CC(Cc3ccc(NC(=O)OCc4cnco4)cc3F)C2)C1` (centres unmarked) [Compound 368, oxazol-5-ylmethyl (3-fluoro-4-((6-isobutyryl-6-azaspiro[3.4]octan-2-yl)methyl)phenyl)carbamate]: 0.09 µM and 2.93 µM.
The matching figures for `CCS(=O)(=O)N1CCC2(CC(Cc3ccc(NC(=O)OCc4cnco4)cc3F)C2)C1` (centres unmarked) [Compound 369, oxazol-5-ylmethyl (3-fluoro-4-((6-(ethylsulfonyl)-6-azaspiro[3.4]octan-2-yl)methyl)phenyl)carbamate]: 0.16 µM and 4.36 µM.
On to `CS(=O)(=O)N1CCC2(CC(Cc3ccc(NC(=O)OCc4cnco4)cc3F)C2)C1` (centres unmarked) [Compound 370, oxazol-5-ylmethyl (3-fluoro-4-((6-(methylsulfonyl)-6-azaspiro[3.4]octan-2-yl)methyl)phenyl)carbamate], for which the “AC1.4 Human” value is 0.13 µM and the EC50 came out at 5.8 µM.
Taken in the same sequence, the figures for `COC(=O)N1CCC2(CC(Cc3ccc(NC(=O)OCc4cnco4)cc3F)C2)C1` (centres unmarked) [Compound 371, methyl 2-(2-fluoro-4-(((oxazol-5-ylmethoxy)carbonyl)amino)benzyl)-6-azaspiro[3.4]octane-6-carboxylate] were 0.27 µM and 4.57 µM.
With `CC(=O)N1CCC2(CC(Cc3ccc(NC(=O)OCc4cnco4)cc3F)C2)C1` (centres unmarked) [Compound 374, oxazol-5-ylmethyl (4-((6-acetyl-6-azaspiro[3.4]octan-2-yl)methyl)-3-fluorophenyl)carbamate], the “AC1.4 Human” value is 0.08 µM and the EC50 turned out to be 4.17 µM.
Turning to `CC(=O)N1CCC[C@H](c2ccc(NC(=O)OCc3cnco3)cc2)C1` [Compound 375, oxazol-5-ylmethyl (R)-(4-(1-acetylpiperidin-3-yl)phenyl)carbamate], the “AC1.4 Human” value is 1.32 µM and the EC50 was 53.8 µM.
Turning to `CC(C)(C)OC(=O)N1CCC2(CC(Cc3ccc(NC(=O)OCc4cnco4)cc3F)C2)C1` (centres unmarked) [Compound 377, tert-butyl 2-(2-fluoro-4-(((oxazol-5-ylmethoxy)carbonyl)amino)benzyl)-6-azaspiro[3.4]octane-6-carboxylate], the “AC1.4 Human” value was determined as 1.08 µM and the EC50 amounted to 9.37 µM.
With `O=C(Nc1ccc(CC2CC3(CCNC3)C2)c(F)c1)OCc1cnco1` (centres unmarked) [Compound 378, oxazol-5-ylmethyl (4-((6-azaspiro[3.4]octan-2-yl)methyl)-3-fluorophenyl)carbamate], the “AC1.4 Human” value turned out to be 0.38 µM and the EC50 was 18.6 µM.
`CN(C)C(=O)N1CCC2(CC(Cc3ccc(NC(=O)OCc4cnco4)cc3F)C2)C1` (centres unmarked) [Compound 379, oxazol-5-ylmethyl (4-((6-(dimethylcarbamoyl)-6-azaspiro[3.4]octan-2-yl)methyl)-3-fluorophenyl)carbamate]: the “AC1.4 Human” value is 0.12 µM and the EC50 was found to be 2.96 µM.
Turning to `O=C(Nc1ccc([C@@H]2CCCN(C3COC3)C2)cc1)OCc1cnco1` [Compound 380, oxazol-5-ylmethyl (S)-(4-(1-(oxetan-3-yl)piperidin-3-yl)phenyl)carbamate], the “AC1.4 Human” value came to 0.84 µM and the EC50 came to 41.5 µM.
The matching figures for `CC(=O)N1CCC[C@@H](c2ccc(NC(=O)OCc3cnco3)cc2)C1` [Compound 381, oxazol-5-ylmethyl (S)-(4-(1-acetylpiperidin-3-yl)phenyl)carbamate]: 3.37 µM and 17 µM.
Regarding `CS(=O)(=O)N1CCC[C@@H](c2ccc(NC(=O)OCc3cnco3)cc2)C1` [Compound 382, oxazol-5-ylmethyl (S)-(4-(1-(methylsulfonyl)piperidin-3-yl)phenyl)carbamate], the “AC1.4 Human” value was found to be 0.35 µM and the EC50 was 22.4 µM.
Taken in the same sequence, the figures for `COC(=O)N1CCC[C@@H](c2ccc(NC(=O)OCc3cnco3)cc2)C1` [Compound 383, methyl (S)-3-(4-(((oxazol-5-ylmethoxy)carbonyl)amino)phenyl)piperidine-1-carboxylate] were 2.58 µM and 20.3 µM.
As to `CN(C)S(=O)(=O)N1CCC[C@@H](c2ccc(NC(=O)OCc3cnco3)cc2)C1` [Compound 384, oxazol-5-ylmethyl (S)-(4-(1-(N,N-dimethylsulfamoyl)piperidin-3-yl)phenyl)carbamate], the “AC1.4 Human” value came out at 0.24 µM and the EC50 worked out at 23.3 µM.
Taken in the same sequence, the figures for `CN(C)C(=O)N1CCC[C@@H](c2ccc(NC(=O)OCc3cnco3)cc2)C1` [Compound 385, oxazol-5-ylmethyl (S)-(4-(1-(dimethylcarbamoyl)piperidin-3-yl)phenyl)carbamate] were 1.69 µM and 20.8 µM.
In the case of `CCS(=O)(=O)N1CC2(CC(Cc3ccc(NC(=O)OCc4cnco4)cc3F)C2)C1` [Compound 386, oxazol-5-ylmethyl (4-((2-(ethylsulfonyl)-2-azaspiro[3.3]heptan-6-yl)methyl)-3-fluorophenyl)carbamate], the “AC1.4 Human” value turned out to be 0.14 µM and the EC50 stood at 14.1 µM.
For the compound `CN(C)S(=O)(=O)N1CC2(CC(c3ccc(NC(=O)OCc4cnco4)cc3F)C2)C1` [Compound 387, oxazol-5-ylmethyl (4-(2-(N,N-dimethylsulfamoyl)-2-azaspiro[3.3]heptan-6-yl)-3-fluorophenyl)carbamate], the “AC1.4 Human” value was 0.08 µM and the EC50 is 2.76 µM.
Taken in the same sequence, the figures for `CS(=O)(=O)N1CC2(CC(c3ccc(NC(=O)OCc4cnco4)cc3F)C2)C1` [Compound 388, oxazol-5-ylmethyl (3-fluoro-4-(2-(methylsulfonyl)-2-azaspiro[3.3]heptan-6-yl)phenyl)carbamate] were 0.13 µM and 10.2 µM.
As for `O=C(Nc1ccc(CC2CC3CCC(C2)N3C(=O)N2CCOCC2)cc1)OCc1cnco1` (centres unmarked) [Compound 389, oxazol-5-ylmethyl (4-((8-(morpholine-4-carbonyl)-8-azabicyclo[3.2.1]octan-3-yl)methyl)phenyl)carbamate], the “AC1.4 Human” value is 0.09 µM and the EC50 was found to be 3.75 µM.
As to `O=C(Nc1ccc(CC2CC3CCC(C2)N3C(=O)N2CCCCC2)cc1)OCc1cnco1` (centres unmarked) [Compound 390, oxazol-5-ylmethyl (4-((8-(piperidine-1-carbonyl)-8-azabicyclo[3.2.1]octan-3-yl)methyl)phenyl)carbamate], the “AC1.4 Human” value stood at 0.13 µM and the EC50 is 1.8 µM.
For `O=C(Nc1ccc(CC2CC3CCC(C2)N3C(=O)N2CCCC2)cc1)OCc1cnco1` (centres unmarked) [Compound 391, oxazol-5-ylmethyl (4-((8-(pyrrolidine-1-carbonyl)-8-azabicyclo[3.2.1]octan-3-yl)methyl)phenyl)carbamate], the “AC1.4 Human” value was found to be 0.05 µM and the EC50 came out at 5.5 µM.
For the compound `O=C(Nc1ccc(CC2CC3CCC(C2)N3C(=O)N2CCC2)cc1)OCc1cnco1` (centres unmarked) [Compound 392, oxazol-5-ylmethyl (4-((8-(azetidine-1-carbonyl)-8-azabicyclo[3.2.1]octan-3-yl)methyl)phenyl)carbamate], the “AC1.4 Human” value came out at 0.13 µM and the EC50 turned out to be 6.9 µM.
Regarding `O=C(Nc1ccc(CC2CC3CCC(C2)N3S(=O)(=O)N2CCC2)cc1)OCc1cnco1` (centres unmarked) [Compound 393, oxazol-5-ylmethyl (4-((8-(azetidin-1-ylsulfonyl)-8-azabicyclo[3.2.1]octan-3-yl)methyl)phenyl)carbamate], the “AC1.4 Human” value amounted to 0.13 µM and the EC50 was 3.84 µM.
Regarding `O=C(Nc1ccc(CC2CC3CCC(C2)N3S(=O)(=O)C2CCC2)cc1)OCc1cnco1` (centres unmarked) [Compound 394, oxazol-5-ylmethyl (4-((8-(cyclobutylsulfonyl)-8-azabicyclo[3.2.1]octan-3-yl)methyl)phenyl)carbamate], the “AC1.4 Human” value is 0.19 µM and the EC50 came to 4.62 µM.
In the case of `COC(=O)N1CC2(CC(Cc3ccc(NC(=O)OCc4cnco4)cc3F)C2)C1` [Compound 396, methyl 6-(2-fluoro-4-(((oxazol-5-ylmethoxy)carbonyl)amino)benzyl)-2-azaspiro[3.3]heptane-2-carboxylate], the “AC1.4 Human” value worked out at 0.11 µM and the EC50 came out at 6.78 µM.
Taken in the same sequence, the figures for `O=C(Nc1ccc(CC2CC3(C2)CN(C2COC2)C3)c(F)c1)OCc1cnco1` [Compound 397, oxazol-5-ylmethyl (3-fluoro-4-((2-(oxetan-3-yl)-2-azaspiro[3.3]heptan-6-yl)methyl)phenyl)carbamate] were 0.98 µM and 42.6 µM.
Turning to `CN(C)C(=O)N1CC2(CC(Cc3ccc(NC(=O)OCc4cnco4)cc3F)C2)C1` [Compound 398, oxazol-5-ylmethyl (4-((2-(dimethylcarbamoyl)-2-azaspiro[3.3]heptan-6-yl)methyl)-3-fluorophenyl)carbamate], the “AC1.4 Human” value came out at 0.08 µM and the EC50 amounted to 3.29 µM.
For `CC(=O)N1CC2(CC(c3ccc(NC(=O)OCc4cnco4)cc3F)C2)C1` [Compound 401, oxazol-5-ylmethyl (4-(2-acetyl-2-azaspiro[3.3]heptan-6-yl)-3-fluorophenyl)carbamate], the “AC1.4 Human” value stood at 0.04 µM and the EC50 amounted to 3.37 µM.
Taken in the same sequence, the figures for `CCC(=O)N1CC2(CC(Cc3ccc(NC(=O)OCc4cnco4)cc3F)C2)C1` [Compound 402, oxazol-5-ylmethyl (3-fluoro-4-((2-propionyl-2-azaspiro[3.3]heptan-6-yl)methyl)phenyl)carbamate] were 0.07 µM and 12.4 µM.

What is called EC50 is the concentration needed to bring the measured effect to its halfway point.
